Read-outs that look alike come from different tables or passages of the source. Each block holds one compound with its values, some of them ahead of it.
Experiments:
[1] = target: WT-EGFR (Homo sapiens, UniProt P00533); assay: radiometric HotSpot recombinant kinase assay, […] compound, […] ATP; type: biochemical
[2] = tested on: SKMES-1; assay: cells; design: anti-proliferative effect in NSCLC cell lines, 50% growth inhibition concentration (GI50); conditions: Homo sapiens, SK-MES-1; read-out: CNX-2006 GI50
From the text: (§1) The exceptional activity of the inhibitor in EGFR-T790M cells was further confirmed in three-dimensional tumor spheroids derived from NCI-H1975 cells. […] Furthermore, increase of cellular fragments in Sub-G1 phase, chromatin condensation and nuclear fragmentation were observed after treatment with the EGFR-TKI (Supplementary Figure 3A). […] The human NSCLC cell lines A549, Calu-1, Calu-6, NCI-H460, NCI-H292, NCI-H1299, NCI-H1730, NCI-H23, NCI-H3255, NCI-H520, NCI-H522, NCI-H596, HCC-827, SKMES-1, SW1573 and NCI-H1975 and the human epidermoid carcinoma A431 cells were purchased from ATCC (Manassas, VA), and cultured as recommended. 293H cells were purchased from Invitrogen (Carlsbad, CA). PC9, PC9GR4, PC9DR1 and HCC-827 GR5 were a kind gift of Dr. Pasi A. Jänne, Harvard University, Boston, MA [13]. PC9/ER, HCC-827/R1 and H3255/XLR cells are isogenic erlotinib- or XL-647-resistant lines derived from PC9, HCC-827 and NCI-H3255 cells, respectively, as previously described. Additional information on cell cultures procedures is reported in the Supplemental Methods.

[3] = tested on: NCI-H596; assay: cells; design: anti-proliferative effect in NSCLC cell lines, 50% growth inhibition concentration (GI50); conditions: Homo sapiens, NCI-H596
From the text: as §1

[4] = tested on: NCI-H1975; assay: cells; design: anti-proliferative effect in NSCLC cell lines, 50% growth inhibition concentration (GI50); conditions: Homo sapiens, NCI-H1975; read-out: CNX-2006 GI50
From the text: as §1

[5] = tested on: PC9; assay: cells; design: anti-proliferative effect in NSCLC cell lines, 50% growth inhibition concentration (GI50); conditions: Homo sapiens, PC-9
From the text: as §1

[6] = tested on: Calu-6; assay: cells; design: anti-proliferative effect in NSCLC cell lines, 50% growth inhibition concentration (GI50); conditions: Homo sapiens, Calu-6; read-out: CNX-2006 GI50
From the text: as §1

[7] = tested on: NCI-H520; assay: cells; design: anti-proliferative effect in NSCLC cell lines, 50% growth inhibition concentration (GI50); conditions: Homo sapiens, NCI-H520; read-out: CNX-2006 GI50
From the text: as §1

[8] = tested on: NCI-H522; assay: cells; design: anti-proliferative effect in NSCLC cell lines, 50% growth inhibition concentration (GI50); conditions: Homo sapiens, NCI-H522; read-out: CNX-2006 GI50
From the text: as §1

[9] = tested on: NCI-H292; assay: cells; design: anti-proliferative effect in NSCLC cell lines, 50% growth inhibition concentration (GI50); conditions: Homo sapiens, NCI-H292; read-out: CNX-2006 GI50
From the text: as §1

[10] = tested on: HCC-827; assay: cells; design: anti-proliferative effect in NSCLC cell lines, 50% growth inhibition concentration (GI50); conditions: Homo sapiens, HCC827
From the text: as §1

[11] = tested on: NCI-H460; assay: cells; design: anti-proliferative effect in NSCLC cell lines, 50% growth inhibition concentration (GI50); conditions: Homo sapiens, NCI-H460
From the text: as §1

[12] = tested on: NCI-H1703; assay: cells; design: anti-proliferative effect in NSCLC cell lines, 50% growth inhibition concentration (GI50); conditions: Homo sapiens, NCI-H1703; read-out: CNX-2006 GI50
From the text: as §1

[13] = tested on: SW1573; assay: cells; design: anti-proliferative effect in NSCLC cell lines, 50% growth inhibition concentration (GI50); conditions: Homo sapiens, SW1573
From the text: as §1

[14] = tested on: NCI-H23; assay: cells; design: anti-proliferative effect in NSCLC cell lines, 50% growth inhibition concentration (GI50); conditions: Homo sapiens, NCI-H23; read-out: CNX-2006 GI50
From the text: as §1

[15] = tested on: NCI-H3255; assay: cells; design: anti-proliferative effect in NSCLC cell lines, 50% growth inhibition concentration (GI50); conditions: Homo sapiens, NCI-H3255
From the text: as §1

[16] = tested on: A549; assay: cells; design: anti-proliferative effect in NSCLC cell lines, 50% growth inhibition concentration (GI50); conditions: Homo sapiens, A549
From the text: as §1

[17] = tested on: NCI-H1299; assay: cells; design: anti-proliferative effect in NSCLC cell lines, 50% growth inhibition concentration (GI50); conditions: Homo sapiens, NCI-H1299; read-out: CNX-2006 GI50
From the text: as §1

[18] = tested on: Calu-1; assay: cells; design: anti-proliferative effect in NSCLC cell lines, 50% growth inhibition concentration (GI50); conditions: Homo sapiens, Calu-1
From the text: as §1

[19] = target: EGFR (Homo sapiens, UniProt P00533, T790M); assay: EGFR phosphorylation in transfected […] cells; type: cell-based
[20] = target: EGFR-L858R/T790M (Homo sapiens, UniProt P00533, L858R/T790M); assay: radiometric HotSpot recombinant kinase assay, […] compound, […] ATP; about […] inhibition; type: biochemical
[21] = target: T1, Chk2 (Homo sapiens, UniProt O96017); assay: radiometric HotSpot recombinant kinase assay, […] compound, […] ATP; type: biochemical
T1 construct: gene CHEK2

[22] = target: EGFR (Homo sapiens, UniProt P00533, DEL746-750/T790M); assay: EGFR phosphorylation in PC9GR4 cells, […] h treatment; type: cell-based
[23] = target: EGFR (Homo sapiens, UniProt P00533, DEL746-750); assay: EGFR phosphorylation in PC9 and HCC-827 cells, […] h treatment; type: cell-based

T1 sequence (O96017 whole entry): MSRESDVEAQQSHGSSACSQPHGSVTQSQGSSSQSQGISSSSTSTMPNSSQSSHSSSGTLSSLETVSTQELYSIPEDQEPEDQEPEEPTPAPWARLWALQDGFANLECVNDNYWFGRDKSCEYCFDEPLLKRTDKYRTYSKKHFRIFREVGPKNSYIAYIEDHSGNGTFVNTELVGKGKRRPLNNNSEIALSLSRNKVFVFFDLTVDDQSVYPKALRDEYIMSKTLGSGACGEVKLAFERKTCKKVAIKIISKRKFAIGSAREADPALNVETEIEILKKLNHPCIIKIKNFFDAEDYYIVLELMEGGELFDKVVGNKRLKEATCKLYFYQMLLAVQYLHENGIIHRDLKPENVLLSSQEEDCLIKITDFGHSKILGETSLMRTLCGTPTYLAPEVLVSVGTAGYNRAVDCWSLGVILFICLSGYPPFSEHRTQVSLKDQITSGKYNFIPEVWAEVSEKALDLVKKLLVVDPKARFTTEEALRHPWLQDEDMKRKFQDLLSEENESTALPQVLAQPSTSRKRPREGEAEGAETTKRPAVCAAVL

SMILES: C=CC(=O)Nc1cccc(Nc2nc(Nc3ccc(NC4CN(CCF)C4)cc3OC)ncc2C(F)(F)F)c1 [CNX-2006]
inhibition at 1 µM [1]: > 50%
GI50 [2]: 1400 ± 100 nM
GI50 ([3]; read-out: CNX-2006 GI50): 4200 ± 300 nM
GI50 [4]: 72 ± 2 nM
GI50 ([5]; read-out: CNX-2006 GI50): 9 ± 1 nM
GI50 [6]: 3200 ± 300 nM
GI50 [7]: 5200 ± 400 nM
GI50 [8]: 1900 ± 400 nM
GI50 [9]: 340 ± 40 nM
GI50 ([10]; read-out: CNX-2006 GI50): 3 ± 2 nM
GI50 ([11]; read-out: CNX-2006 GI50): 5000 ± 600 nM
GI50 [12]: 4300 ± 300 nM
GI50 ([13]; read-out: CNX-2006 GI50): 1900 ± 200 nM
GI50 [14]: 2400 ± 300 nM
GI50 ([15]; read-out: CNX-2006 GI50): 6 ± 2 nM
GI50 ([16]; read-out: CNX-2006 GI50): 2700 ± 100 nM
GI50 [17]: 4500 ± 500 nM
GI50 ([18]; read-out: CNX-2006 GI50): 8000 ± 300 nM
EGFR phosphorylation in transfected 293H cells [19]: CNX-2006 effectively inhibited the phosphorylation of the receptor at low nanomolar concentrations
inhibition at 1 µM [20]: ~96%
inhibition at 1 µM [21]: > 50%
IC50 [22]: ~61 nM
IC50 [23]: 55 to 104 nM

GI50 ([3]; read-out: CO-1686 GI50): 2000 ± 100 nM
GI50 ([5]; read-out: CO-1686 GI50): 4 ± 2 nM
GI50 ([10]; read-out: CO-1686 GI50): 2 ± 1 nM
GI50 ([11]; read-out: CO-1686 GI50): 2300 ± 200 nM
GI50 ([13]; read-out: CO-1686 GI50): 1100 ± 100 nM
GI50 ([15]; read-out: CO-1686 GI50): 5 ± 2 nM
GI50 ([16]; read-out: CO-1686 GI50): 1200 ± 200 nM
GI50 ([18]; read-out: CO-1686 GI50): 2000 ± 300 nM
SMILES: C=CC(=O)Nc1cccc(Nc2nc(Nc3ccc(N4CCN(C(C)=O)CC4)cc3OC)ncc2C(F)(F)F)c1 [CO-1686]

From paper PMC4767465, “NF-κB drives acquired resistance to a novel mutant-selective EGFR inhibitor” (Oncotarget, 2015)
